Results: patent US9242991B2, “Substituted fused heterocycles as c-Met tyrosine kinase inhibitors” (BETTA PHARMACEUTICALS CO., LTD, priority 2010, dated 2016)
Several values for one entry are separate records, joined by “and”; a condition that tells them apart may be missing. Equal entries are not always repeated.

Experiments:
[1] = biological target: T1, c-Met phosphorylation (pY1349) in NCI-H460 cells (Homo sapiens, UniProt P08581); test: HGF Stimulated Met (pY1349) NCI-H460 Cell-based ELISA; conditions: for Mean (Counts − Blanks) / Mean of Activity (% Control) / Counts / Activity (% Control): 0.2 μM compound; for Mean of Activity (% Control): mean of replicates; for Counts / Activity (% Control): single replicates
T1 construct: host or cells: NCI-H460
T1 sequence (P08581 25-1390): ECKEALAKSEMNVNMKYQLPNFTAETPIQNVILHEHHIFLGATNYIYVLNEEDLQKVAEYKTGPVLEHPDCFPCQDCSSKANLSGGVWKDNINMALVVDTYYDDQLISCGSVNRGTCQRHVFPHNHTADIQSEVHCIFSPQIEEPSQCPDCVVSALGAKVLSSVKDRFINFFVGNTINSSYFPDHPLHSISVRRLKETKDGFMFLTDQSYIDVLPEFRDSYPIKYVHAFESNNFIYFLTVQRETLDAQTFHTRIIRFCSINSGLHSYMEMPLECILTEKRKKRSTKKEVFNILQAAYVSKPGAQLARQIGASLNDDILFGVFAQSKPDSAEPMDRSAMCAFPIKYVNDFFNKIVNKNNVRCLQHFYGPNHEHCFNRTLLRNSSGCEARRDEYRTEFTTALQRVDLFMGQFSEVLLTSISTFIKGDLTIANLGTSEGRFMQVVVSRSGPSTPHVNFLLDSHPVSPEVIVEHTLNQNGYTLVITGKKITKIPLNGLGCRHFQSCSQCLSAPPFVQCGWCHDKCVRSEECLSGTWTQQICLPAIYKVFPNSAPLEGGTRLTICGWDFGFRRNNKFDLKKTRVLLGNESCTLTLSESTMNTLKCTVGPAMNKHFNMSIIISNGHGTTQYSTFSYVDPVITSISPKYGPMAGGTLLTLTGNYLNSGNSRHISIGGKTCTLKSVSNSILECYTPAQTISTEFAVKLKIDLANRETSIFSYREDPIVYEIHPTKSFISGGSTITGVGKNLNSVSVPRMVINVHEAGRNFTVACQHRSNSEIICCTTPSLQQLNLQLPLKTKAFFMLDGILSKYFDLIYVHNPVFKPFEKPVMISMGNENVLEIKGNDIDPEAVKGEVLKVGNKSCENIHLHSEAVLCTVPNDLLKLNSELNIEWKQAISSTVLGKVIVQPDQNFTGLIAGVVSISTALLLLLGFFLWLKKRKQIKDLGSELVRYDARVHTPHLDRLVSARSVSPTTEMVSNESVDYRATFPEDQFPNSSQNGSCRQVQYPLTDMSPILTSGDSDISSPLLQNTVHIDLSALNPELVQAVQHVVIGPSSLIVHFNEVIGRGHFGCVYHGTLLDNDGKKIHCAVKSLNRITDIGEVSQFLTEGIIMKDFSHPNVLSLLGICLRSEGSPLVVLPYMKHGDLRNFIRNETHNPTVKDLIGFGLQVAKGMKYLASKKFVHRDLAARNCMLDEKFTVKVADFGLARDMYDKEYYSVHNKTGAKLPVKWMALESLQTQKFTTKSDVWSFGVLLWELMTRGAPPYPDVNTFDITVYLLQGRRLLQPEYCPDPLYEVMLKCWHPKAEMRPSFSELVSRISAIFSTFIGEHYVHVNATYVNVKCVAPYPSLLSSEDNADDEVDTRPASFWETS
Procedure: HGF Stimulated Met (pY1349) NCI-H460 Cell-based ELISA NCI-H460 cells (purchased from ATCC) are cultured in RPMI 1640 media (Invitrogen) supplemented with 10% Fetal Bovine Scrum (FBS) and plated (prior to becoming 70% confluent) in 96-well flat-bottom plates at a density of 20,000 cells per well in 80 μL volume. The cells are then incubated overnight in a cell culture incubator (5% CO2, 95% Relative Humidity (RH) and 37° C.) and allowed to attach to the plate. The following morning the cells are washed with 2 volumes of a Reduced Serum Media (RSM) (RPMI 1640 media supplemented with 0.5% FBS). After removal of the last wash, 80 µL of RSM is added to each well of the cell plates. The cell plates are incubated for 2.5 hours in a cell culture incubator, and then dosed with compounds. Compound inhibitors are first solubilized at 10 mM in 100% DMSO and then diluted to 100 μM with 2% DMSO RSM. Subsequently compound serial dilutions (1:3) are prepared over a 100 μM to 0.005 μM range. Cells are dosed with the addition of 20 μL of compound stock to produce a final DMSO concentration of 0.4% and a final compound concentration dose range between 20 and 0.001 μM. After dosing with compounds the cells plates are gently agitated to mix and then allowed to incubate for 30 min in a cell culture incubator. After dose completion, the cells are stimulated with the addition of 20 μL per well of Hepatocyte Growth Factor (HGF) at a final concentration of 100 ng/mL in RSM (all wells except MIN wells are stimulated, MIN wells are dosed with 20 μL RSM). After 10 min incubation in a cell culture incubator, the liquid is removed from the cell plate wells, and the cells are lysed by the addition of 50 μL of ice-cold Meso Scale Discovery® (MSD, Gaithersburg, Md.) IX Lysis Buffer (150 mM NaCl, 20 mM Tris, pH7.5, 1 mM EDTA, 1 mM ethylene glycol tetraacetic acid, and 1% TRITON® X-100) supplemented with Phosphatase I and II and Protease inhibitors (Sigma, St. Louis, Mo.). After lysis at RT for 30 min the lysates are transferred to and captured on a MSD® Multi-Spot 96-well. 4-spot PhosphoMet plate that is BSA-blocked (at 30 mg/mL Block A in IX Tris Wash Buffer) and then washed one time with Tris Wash Buffer. After 2 hours capture (at RT) the lysates are removed from the MSD® plate and the plate is washed with IX Tris Wash Buffer. After blotting, 25 μL of 5 nM Sulfo-Tag Anti-Total Met antibody (detection antibody, MSD® prepared in IX Tris Wash Buffer supplemented with 10 mg/mL BSA and 0.1% Blocker D-R (MSD®)) is added to the wells of the MSD® plate. After 1 hour capture (at RT) the MSD® plate wells are washed with IX Tris Wash Buffer, and then 150 μL of IX Read Buffer T (with surfactant, MSD®) is added. Immediately after the addition of the Read Buffer, the plates are analyzed with a SECTOR 6000 MSD® Imager plate reader. Relative IC50 values are determined using MSD activity units by calculating percent inhibition with respect to on-plate “MIN” and “MAX” controls and then fitting the percent inhibition values and ten-point dose response data to a four-parameter logistic equation. This assay has a Minimum Significant Ratio (MSR) of 2.06.

[2] = biological target: T2, c-Met phosphorylation in SI 14 tumors (human c-Met) (Homo sapiens, UniProt P08581); test: c-Met In Vivo Target Inhibition Assay (SI 14 tumors in nude mice, phosphor-Met ELISA); conditions: oral gavage, read-out: ED50 (dose that produces 50% inhibition in tumor)
T2 construct: host or cells: SI 14 (S114) cells as subcutaneous tumours in athymic nude mice
T2 sequence (P08581 25-1390): as above
Procedure: SI 14 cells (licensed from PHS, over-express both human HGF and human c-Met) are cultured in a growth media (Dulbecco's Modified Eagle Medium) supplemented with 10% fetal calf serum and expanded. Cells are harvested and washed twice with phosphate buffered saline and 2×10^6 cells are mixed with equal volume of BD Matrigel™ matrix (BD Bioscience, Franklin, N.J.), and injected subcutaneous Iy into the flank of nude mice (athymic nude, from Harlan, Indianapolis, Ind.). At day 8 after implant, compounds (formulated in 10% acacia or 1% carboxymethylcellulose/0.5% sodium lauryl sulfate/0.05% antifoam as suspension) are administered to animals by oral gavage at 50 mg/kg. Animals are sacrificed at 2 hours post dose, and tumors are harvested and stored frozen until needed.
Frozen tumors are pulverized using motar-pastel. The pulverized tissues are transferred to a tube containing Lysing Matrix D beads (MP Biomedicals, Solon, Ohio) and 600 μL lysis buffer (RIPA buffer, containing 50 mM Tris-HCl, pH7.4, 150 mM NaCl, 1% NP-40, 0.5% sodium deoxycholate, 0.1% SDS, from Boston Bioproducts). A FastPrep® Cell Disrupter (MP Biomedicals) is used to disrupt the tissue and lyse the cells. […] Protein concentration is determined by Bradford method. Tumor lysates are loaded onto MSD® phosphor-Met ELISA plates and phosphor-c-Met level is determined using the same protocol as H460 cell-based ELISA. […]

[3] = tested on: U87MG, MKN45, H441 and Caki-1 tumors; test: Xenograft Tumor Models (U87MG, MKN45, H441, Caki-1); type: in vivo, human; conditions: oral gavage, athymic nude mice
Procedure: (§1) Human glioblastoma cells U87MG, human gastric cancer cells MKN45, human non small cell lung cancer cells H441, and human renal carcinoma cells Caki-1 are expanded in culture, harvested, and injected subcutaneous Iy onto the rear flank of athymic nude mice. Testing compound is prepared in an appropriate vehicle and is administered by oral gavage when tumors are established (7-21 days after implant). Tumor response is determined by tumor volume measurement performed twice a week during the course of treatment. Tumor volume inhibition (% growth inhibition) is calculated by comparing treated groups to a vehicle control group. Body weight is taken as a general measurement of toxicity. […] At 60 mg/kg dose (PO, BID×35), 82% growth inhibition is achieved. At 120 mg/kg dose (PO, BID×35), 92% growth inhibition reaches.

U87MG tumors = test: Xenograft tumor model, U87MG; type: in vivo, human; conditions: BID×35, athymic nude mice
Procedure: as §1

| Structure (SMILES) | Mean (Counts − Blanks) [1] | Mean of Activity (% Control) [1] [% Control] | Counts [1] | Activity (% Control) ([1]; 0.2 µM) | melting point [°C] | ED50 [2] [mg/kg] | anti-tumor activity in xenograft models [3] | Activity (% Control) [1] [% Control] | IC50 ([1]; NCI-H460 cells, HGF 100 ng/mL, Example 1 value is average of n=6, read-out: IC50 (inhibition of c-Met phosphorylation in cells)) [nM] | growth inhibition of U87MG tumors (U87MG tumors; 30 mg/kg PO) [%] | growth inhibition of U87MG tumors (U87MG tumors; 60 mg/kg PO) [%] | growth inhibition of U87MG tumors (U87MG tumors; 120 mg/kg PO) [%] |
| --- | --- | --- | --- | --- | --- | --- | --- | --- | --- | --- | --- | --- |
| O=C(Nc1ccc(Oc2ncnc3cc4c(cc23)OCO4)c(F)c1)c1c[nH]cc(-c2ccc(F)cc2)c1=O [Example 9, 5-(4-Fluoro-phenyl)-4-oxo-1,4-dihydro-pyridine-3-carboxylic acid [4-([1,3]dioxolo[4,5-g]quinazolin-8-yloxy)-3-fluoro-phenyl]-amide] | 27649 | 19 | 28364 and 28738 | 18 % Control and 20 % Control |  |  |  |  |  |  |  |  |
| Cn1c(Nc2ccc(F)cc2)ncc(-c2ccc(Oc3ncnc4cc5c(cc34)OCCOCCOCCO5)cn2)c1=O [Example 6, 2-(4-Fluoro-phenylamino)-5-[5-(7,8,10,11,13,14-hexahydro-6,9,12,15-tetraoxa-1,3-diaza-cyclododeca[b]naphthalen-4-yloxy)-pyridin-2-yl]-3-methyl-3H-pyrimidin-4-one] | 29068 | 25 | 30847 and 29093 | 29 % Control and 21 % Control |  |  |  |  |  |  |  |  |
| Cn1c(Nc2ccccc2)ncc(-c2ccc(Oc3ccnc4cc5c(cc34)OC(F)(F)O5)cn2)c1=O [Example 28, 5-[5-(2,2-Difluoro-[1,3]dioxolo[4,5-g]quinolin-8-yloxy)-pyridin-2-yl]-2-(phenylamino)-3-methyl-3H-pyrimidin-4-one] | 30 | 1 | 1070 and 793 | 1 % Control and 0 % Control |  |  |  |  |  |  |  |  |
| CN1CCOc2cc3ncnc(Oc4ccc(-c5cnc(Nc6ccc(F)cc6)n(C)c5=O)nc4)c3cc2OCC1 [Example 21, 2-(4-Fluoro-phenylamino)-3-methyl-5-[5-(9-methyl-8,9,10,11-tetrahydro-7H-6,12-dioxa-1,3,9-triaza-cyclonona[b]naphthalen-4-yloxy)-pyridin-2-yl]-3H-pyrimidin-4-one] | 29384 | 27 | 31741 and 28830 | 33 % Control and 20 % Control |  |  |  |  |  |  |  |  |
| Cn1c(Nc2ccc(F)cc2)ncc(-c2ccc(Oc3ncnc4cc5c(cc34)OC(F)(F)O5)cn2)c1=O [Example 8, 5-[5-(2,2-Difluoro-[1,3]dioxolo[4,5-g]quinazolin-8-yloxy)-pyridin-2-yl]-2-(4-fluoro-phenylamino)-3-methyl-3H-pyrimidin-4-one] | 28728 | 24 | 30429 and 28830 | 27 % Control and 20 % Control |  |  |  |  |  |  |  |  |
| O=C(Nc1ccc(Oc2ccnc3cc4c(cc23)OCCOCCOCCO4)c(F)c1)c1c[nH]cc(-c2ccc(F)cc2)c1=O [Example 10, 5-(4-Fluoro-phenyl)-4-oxo-1,4-dihydro-pyridine-3-carboxylic acid [3-fluoro-4-(7,8,10,11,13,14-hexahydro-6,9,12,15-tetraoxa-1-aza-cyclododeca[b]naphthalen-4-yloxy)-phenyl]-amide] | 28866 | 25 | 30524 and 29012 | 28 % Control and 21 % Control | 188 to 190 |  |  |  |  |  |  |  |
| Cn1c(Nc2ccc(F)cc2)ncc(-c2ccc(Oc3ncnc4cc5c(cc34)OCCCO5)cn2)c1=O [Example 20, 5-[5-(8,9-Dihydro-7H-6,10-dioxa-1,3-diaza-cyclohepta[b]naphthalen-4-yloxy)-pyridin-2-yl]-2-(4-fluoro-phenylamino)-3-methyl-3H-pyrimidin-4-one] | 32073 | 39 | 34234 and 31716 | 44 % Control and 33 % Control |  |  |  |  |  |  |  |  |
| Cn1c(Nc2ccccc2)ncc(-c2ccc(Oc3ccnc4cc5c(cc34)OCCOCCOCCOCCOCCO5)cn2)c1=O [Example 31, 5-[5-(2,5,8,11,14,17-Hexaoxa-21-aza-tricyclo[16.8.0.020,25]hexacosa-1(18), 19,21,23,25-pentaen-24-yloxy)-pyridin-2-yl]-3-methyl-2-phenylamino-3 H-pyrimidin-4-one] | 17936 | 37 | 20248 and 17427 | 43 % Control and 31 % Control |  |  |  |  |  |  |  |  |
| O=C(Nc1ccc(Oc2ccnc3cc4c(cc23)OCCOCCOCCO4)c(F)c1)c1cccn(-c2ccc(F)cc2)c1=O [Example 11, 1-(4-Fluoro-phenyl)-2-oxo-1,2-dihydro-pyridine-3-carboxylic acid [3-fluoro-4-(7,8,10,11,13,14-hexahydro-6,9,12,15-tetraoxa-1-aza-cyclododeca[b]naphthalen-4-yloxy)-phenyl]-amide] | 31407 | 35 | 32582 and 32035 | 36 % Control and 34 % Control |  |  |  |  |  |  |  |  |
| O=C(Nc1ccc(Oc2ncnc3cc4c(cc23)OCCOCCOCCO4)c(F)c1)c1c[nH]cc(-c2ccc(F)cc2)c1=O [Example 1, 5-(4-Fluoro-phenyl)-4-oxo-1,4-dihydro-pyridine-3-carboxylic acid [3-fluoro-4-(7,8,10,11,13,14-hexahydro-6,9,12,15-tetraoxa-1,3-diaza-cyclododeca[b]naphthalen-4-yloxy)-phenyl]-amide] | 50 | 0 | 1008 and 895 |  | 188 to 190 | 2.9 | excellent dose dependent anti-tumor activity | 0 | 35.2 | 59 | 82 | 92 |
